Experimental findings from patent US6716829B2, “Aldosterone antagonist and cyclooxygenase-2 inhibitor combination therapy to prevent or treat inflammation-related cardiovascular disorders” (Pharmacia Corporation, priority 2000, dated 2004) are described below.

The test system of the assay is monocyte chemoattractant protein-1 (MCP-1). The experiment in a line: Assay C: MCP-1 mRNA in heart by TaqMan RT-PCR. It counts as in vivo, Male Sprague-Dawley rats. To be noted: for MCP-1 mRNA (AU): relative to cyclophilin expression, mean ± SEM, eplerenone dose 100 mg/kg/day; for MCP1 (AU): mRNA, individual rats, incl. rat marked * excluded from statistics; for MCP-1 mRNA expression: myocardium, aldosterone + salt, 7, 14, 30 days, eplerenone 100 mg/kg/day. The procedure: The procedure of Assay B was expanded upon in a further study. […] Myocardial tissue from animals in each treatment group was examined after 7, 14, or 30 days of treatment.
Potassium chloride supplementation was added to the saline solution in order to prevent the potential hypokalemia associated with aldosterone excess.
At the time of the surgery, an Alzet 2002 osmotic minipump (Alza Corp., Palo Alto, Calif.) containing either vehicle (9% ethanol/87% propylene glycol/4% dH2O) or 1.0 mg/mL d-aldosterone (Sigma Chemical, St. Louis, Mo.) was inserted subcutaneously at the nape of the neck. Aldosterone was administered at a dose of 0.75 µg/hour. […] Animals were sacrificed from each group (n=8-13) after 7, 14, or 30 days of treatment.
The fluorogenic 5′-nuclease assay (TaqMan PCR) using Applied Biosystems' 7700 Sequence Detection System (Applied Biosystems, Foster City, Calif.) allowed for real time detection/quantitation of a specific gene by monitoring the increase in fluorescence of a gene-specific, dye-labeled oligonucleotide probe. Probes for target and reference genes were labeled at the 5′-end with a 6-carboxyfluorescein (6FAM) reporter dye and at the 3′-end with a 6-carboxy-N,N,N′,N′-tetramethylrhodamine (TAMRA) quencher dye. When the probe was annealed to the target gene, fluorescence of 6FAM was prevented by the close proximity of TAMRA. The exonuclease activity of Taq polymerase released the dyes from the oligonucleotide probe by displacing the probe from the target sequence resulting in fluorescence excitation in direct proportion to the amount of target message present. Data analysis was performed using the Sequence Detection System software from Applied Biosystems.
All primers and probes were designed using Primer Express software supplied with the 7700 Sequence Detection System and synthesized by Applied Biosystems. Standard curves using 5-fold dilutions of total RNA (from 200 ng to 320 pg) were performed to determine the efficiency of each primer/probe set in the TaqMan reaction prior to the analysis of the experimental samples. Primer/probe sets were designed from known sequences of rat genes to be analyzed. All target gene values were normalized to a reference gene, constitutively expressed cyclophilin. Primer/probe set sequences can be found in Table 8.
RNA was extracted from frozen (−80° C.) rat heart tissue using the Totally RNA Isolation Kit (Ambion, Inc., Austin, Tex.). Tissue was crushed using a stainless steel mortar and pestle, which had been chilled to −80° C. and transferred to a dounce homogenizer (Kontes, Vineland, N.J.) containing 3-10 mL cold denaturation buffer. Tissue was homogenized and transferred to a sterile, 15 mL polypropylene centrifuge tube. An equal volume of phenol:chloroform:isoamyl alcohol (25:24:1) was added, samples were shaken vigorously for 1 min, and incubated on ice for at least 15 min. Samples were centrifuged for 30 min at 10,000g. The aqueous phase was removed, 1/10 volume of a sodium acetate solution (3.0 M NaOAc pH 4.5) was added, samples were shaken or inverted for 10 seconds, and acid-phenol (premixed with isoamyl alcohol):chloroform (5:1, Ambion, Inc.) was added at an volume equivalent to the starting sample volume. Samples were shaken vigorously for 1 min, followed by a 15-min incubation on ice, and centrifuged for 30 min at 10,000 g. The aqueous phase removed and placed in a clean polypropylene tube. An equal volume of isopropanol (Sigma, St. Louis, Mo.) was added and the samples were mixed and incubated overnight at −20° C. The samples were centrifuged for 30 min at 10,000 g, the supernatant was removed and the RNA pellet was resuspended in DNAse/RNAse-free water. Samples were frozen at −80° C. for at least 2 hours, thawed on wet ice, and diluted for quantitation.
(In general: Quantitative PCR measures a nucleic acid by following its amplification.)

The structures appear in SMILES notation. Where “and” joins values, the source holds several entries; their conditions need not be identical. Identical values can stand only once. Entries after “also recorded” stand apart in the source; their conditions may differ.

For `COC(=O)[C@@H]1CC2=CC(=O)CC[C@]2(C)[C@@]23O[C@@H]2C[C@@]2(C)[C@@H](CC[C@@]24CCC(=O)O4)[C@H]13` [Eplerenone], the “MCP-1 mRNA expression” value is on record as “inhibition; also recorded: significantly reduced”. In addition, the “MCP-1 mRNA (AU)” value (after 7 days of treatment) stood at 1.56 AU. The “MCP-1 mRNA (AU)” value (after 14 days of treatment) turned out to be 1.59 AU. The “MCP-1 mRNA (AU)” value (after 30 days of treatment) was 2.29 AU. The “MCP1 (AU)” value (data used for Table 17 (7-day protocol), listed as Eplerenone + aldosterone + salt) is 2.35 AU and 1.60 AU and 0.85 AU and 0.83 AU and 1.74 AU and 2.38 AU and 0.67 AU and 2.03 AU. Further, under “data used for Table 18 (14-day protocol), listed as Eplerenone + aldosterone + salt”, the “MCP1 (AU)” value was 1.78 AU and 1.37 AU and 1.27 AU and 1.75 AU and 1.60 AU and 1.24 AU (2×) and 1.92 AU and 1.89 AU and 2.21 AU and 1.20 AU. For the same compound, the “MCP1 (AU)” value (data used for Table 19 (30-day protocol), listed as Eplerenone + aldosterone + salt) was 2.11 AU (2×) and 1.70 AU and 2.21 AU and 1.38 AU and 2.10 AU and 2.02 AU and 1.43 AU and 5.58 AU and 8.14 AU.
In the case of `C[C@]12CCC(=O)C=C1CC[C@@H]1[C@@H]2[C@@H](O)C[C@]2(C=O)[C@@H](C(=O)CO)CC[C@@H]12` [Aldosterone], the “MCP-1 mRNA expression” value is given as “significantly increased”. In addition, the “MCP-1 mRNA (AU)” value (after 7 days of treatment) is 2.38 AU. Besides, the “MCP-1 mRNA (AU)” value (after 14 days of treatment) was determined as 2.76 AU. For the same compound, where the note is “after 30 days of treatment”, the “MCP-1 mRNA (AU)” value is given as 4.54 AU. Besides, the “MCP1 (AU)” value (data used for Table 17 (7-day protocol), listed as Aldosterone + salt) was 2.05 AU and 1.78 AU and 3.06 AU and 2.36 AU and 1.95 AU and 2.33 AU and 3.14 AU and 2.40 AU and 5.17 AU. For the same compound, the “MCP1 (AU)” value (data used for Table 18 (14-day protocol), listed as Aldosterone + salt) is 2.42 AU and 1.87 AU and 4.59 AU and 3.19 AU and 3.34 AU and 1.91 AU and 2.50 AU and 2.22 AU and 5.88 AU. Also, the “MCP1 (AU)” value (data used for Table 19 (30-day protocol), listed as Aldosterone + salt) is 3.94 AU and 7.19 AU and 1.61 AU and 9.35 AU and 2.30 AU and 2.86 AU.
